Read-outs that look alike come from different tables or passages of the source.
Assays:
GHSR1a receptor = target: T1, GHSR1a receptor (Homo sapiens, UniProt Q92847); assay: 125I-Ghrelin binding assay; conditions: displacement of 125I-ghrelin (0.053 nM), membranes of HEK293 cells transfected with GHSR1a; Cheng-Prussoff; '—' not defined; read-out: Binding pKi (converted)
T1 construct: expressed in transfected cells; host or cells: HEK293 (membranes)

Ghrelin receptor = Ghrelin receptor (Homo sapiens, UniProt Q92847); assay: Receptor Selection and Amplification Technology (R-SAT) assay; format: cell-based; design: expressed in transfected cells; host or cells: NIH3T3; conditions: for IC50: '—' not defined (nd used separately), read-out: RSAT pIC50 (converted); for Emax: read-out: RSAT Eff(%)
Ghrelin receptor, sequence (Q92847 whole entry): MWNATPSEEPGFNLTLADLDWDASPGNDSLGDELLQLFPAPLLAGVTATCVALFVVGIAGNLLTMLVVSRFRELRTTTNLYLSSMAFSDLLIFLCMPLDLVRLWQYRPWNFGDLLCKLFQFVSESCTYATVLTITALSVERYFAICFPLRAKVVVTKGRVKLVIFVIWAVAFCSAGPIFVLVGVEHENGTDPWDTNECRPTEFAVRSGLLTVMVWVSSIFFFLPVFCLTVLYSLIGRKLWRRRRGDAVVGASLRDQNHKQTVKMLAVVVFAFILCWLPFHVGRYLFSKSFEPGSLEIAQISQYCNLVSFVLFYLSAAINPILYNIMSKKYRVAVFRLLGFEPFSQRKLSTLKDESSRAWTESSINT

[1] = negative logarithm of ligand concentration causing 50% inhibition of constitutive receptor response, transfected NIH3T3 cells
[2] = percent inhibition at saturating ligand, normalized to reference ligand Substance P analog = 100%

T1 sequence (Q92847 whole entry): as above

SMILES	Ki (GHSR1a receptor) [nM]	IC50 (Ghrelin receptor; [1]) [nM]	Emax (Ghrelin receptor; [2]) [%]	RSAT Eff(%) (Ghrelin receptor; [2])	Emax (Ghrelin receptor) [%]	IC50 (Ghrelin receptor; […]) [nM]
CCCCC[C@H]1C[C@H]2CC[C@@H](C1)N2CCCn1cc(C(C)=O)c2cccc(Br)c21	158	1.26	81			
COc1cccc2c(C(C)=O)cn(CCCN3CCCN(Cc4ccc(F)cc4)CC3)c12	15.8	1.26		130		
CCc1cccc2c(C(C)=O)cn(CCCN3CCC(Oc4cccc(Cl)c4)CC3)c12	31.6	1.58	118			
COc1cccc2c(C(=O)NCC(C)C)cn(CCCN3CCC(Oc4ccc(F)cc4)CC3)c12	126	1.58			90	
COc1cccc2c(C(=O)C3CC3)cn(CCCN3CCC(Oc4cccc(Cl)c4)CC3)c12	20	1.58			102	
CCCCC[C@H]1C[C@H]2CC[C@@H](C1)N2CCCn1cc(C(C)=O)c2cccc(OC)c21	316	2		113		
COc1cccc2c(C#N)cn(CCCN3C4CCC3CC(CCc3ccccc3)C4)c12 (stereo not drawn)	25.1	2			104	
COc1cccc2c(C(C)=O)cn(CCCN3CCN(c4ncc(C(F)(F)F)cc4Cl)CC3)c12	398	2.51		103		
COc1cccc2c(C#N)cn(CCCN3CCCN(Cc4ccccc4Cl)CC3)c12	12.6	2.51	137			
CC(=O)c1cn(CCCN2CCC(C(=O)c3ccccc3)CC2)c2c(C)cccc12	100	3.16	96			
CC(=O)c1cn(CCCN2CCCN(Cc3ccccc3Cl)CC2)c2ncccc12	25.1	3.16	115			
COc1cccc2c(C(=O)Cc3ccccc3)cn(CCCN3CCN(Oc4cccc(Cl)c4)CC3)c12	15.8				88	3.16
COc1cccc2c(C(=O)Cc3ccccc3)cn(CCCN3C4CCC3CC(Oc3ccc(F)cc3)C4)c12 (stereo not drawn)	251				99	3.98
COc1cccc2c(C(=O)c3ccccc3)cn(CCCN3CCCN(Cc4ccc(F)cc4)CC3)c12	10				96	3.98
COc1cccc2c(C(=O)NCC(C)C)cn(CCCN3CCC(Oc4ccc(Cl)cc4)CC3)c12	50.1	3.98			146	
COc1cccc2c(C(C)=O)cn(CCCN3CCN(c4ccc(C(F)(F)F)cc4)CC3)c12	251	25.1	92			
COc1cccc2c(C(=O)Cc3ccccc3)cn(CCCN3CCCC(Cc4ccccc4Cl)C3)c12 (stereo not drawn)	126				116	25.1
Cc1cccc(CNC(=O)n2cc(CCCN3C4CCC3CC(CCc3ccccc3)C4)c3ccccc32)c1 (stereo not drawn)	158	31.6	114			
O=C(c1cn(CCCN2C3CCC2CC(CCc2ccccc2)C3)c2ncccc12)C(F)(F)F (stereo not drawn)	200	31.6	104			
COc1cccc2c(C(C)=O)cn(CCCN3CCC(Cc4ccccc4)CC3)c12	794	31.6	116			
O=C(c1cn(CCCN2CCCN(Cc3ccccc3Cl)CC2)c2ncccc12)C(F)(F)F	50.1	31.6	85			
COc1ccccc1C1CCN(CCCn2cc(C(C)=O)c3cccc(OC)c32)CC1	631	39.8		109		
CC(=O)c1cn(CCCN2CCC(Oc3ccc(F)cc3)CC2)c2c(Cl)cccc12	2000	39.8	120			
COc1cccc2c(C(C)=O)cn(CCCN3CCC(C(=O)c4ccccc4)CC3)c12	2000	39.8		98		
COc1cccc2c(C(C)=O)cn(CCCN3CCN(c4ccc(C(F)(F)F)cc4[N+](=O)[O-])CC3)c12	631	39.8	94			

SMILES	Ki (GHSR1a receptor) [nM]	IC50 (Ghrelin receptor; [1]) [nM]	Emax (Ghrelin receptor; [2]) [%]	RSAT Eff(%) (Ghrelin receptor; [2])	Emax (Ghrelin receptor) [%]	IC50 (Ghrelin receptor; […]) [nM]
COc1cccc2c(C#N)cn(CCCN3C4CCC3CC(CCc3ccc(Cl)cc3)C4)c12 (stereo not drawn)	251	39.8	77			
CC(=O)c1cn(CCCN2CCC(Oc3ccc(Cl)cc3)CC2)c2c(C)cccc12	2000	39.8	101			
COc1cccc2c(C(C)=O)cn(CC(C)CN3CCC(Oc4cccc(Cl)c4)CC3)c12 (stereo not drawn)	794	39.8	102			
COc1ccccc1C1CCN(CCCn2cc(C(C)=O)c3cccc(C)c32)CC1	1260	39.8	116			
CC(=O)c1cn(CCCN2C3CCC2CC(Oc2ccc(F)cc2)C3)c2c(C#N)cccc12 (stereo not drawn)	100	50.1	93			
COc1cccc2c(C(=O)NCc3cccc(Cl)c3)cn(CCCN3C4CCC3CC(Oc3ccc(Cl)cc3)C4)c12 (stereo not drawn)	251	50.1		97		
COc1ccc(C(=O)OC2C[C@H]3CC[C@@H](C2)N3CCCn2cc(C(C)=O)c3cccc(OC)c32)cc1OC (stereo partly drawn)	1000	50.1			104	
COc1ccccc1C1CCN(CCCn2cc(C(C)=O)c3cccc(Br)c32)CC1	316	50.1	109			
CC(=O)c1cn(CCCN2C3CCC2CC(Oc2ccc(Cl)cc2)C3)c2c(Cl)cccc12 (stereo not drawn)	1000	50.1	104			
CC(=O)c1cn(CCCN2C3CCC2CC(CCc2ccc(Cl)cc2)C3)c2ncccc12 (stereo not drawn)	398	79.4	87			
CC(=O)c1cn(CCCN2CCC(C(=O)c3ccccc3)CC2)c2c(Br)cccc12	1580	79.4	84			
COc1cccc2c(C#N)cn(CCCN3C4CCC3CC(Oc3ccccc3Cl)C4)c12 (stereo not drawn)	631	100	114			
CC(C)CC(=O)c1cn(CCCN2CCC(Oc3ccc(F)cc3)CC2)c2ccccc12	1000				93	100
CCc1cccc2c(C(C)=O)cn(CCCNCCOc3ccccc3)c12	12.6	100	106			
CCCCC(=O)c1cn(CCCN2CCC(Oc3ccc(Cl)cc3)CC2)c2ccc(OC)cc12	251	126			111	
CC(=O)c1cn(CCCN2CCC(Oc3ccc(Cl)cc3)CC2)c2ccccc12	2510	126	104			
CCCCCC=C1CCN(CCCn2cc(C(C)=O)c3ccccc32)CC1	200	200	139			
CCCCCCC1CCN(CCCn2cc(C(C)=O)c3ccccc32)CC1	6310	200	94			
CC(=O)c1cn(CCCN2CCC(CCC(C)C)CC2)c2ccccc12	3980	398	73			
CC(=O)c1c(C)n(CCCN2C3CCC2CC(CC(=O)c2ccc(Cl)cc2)C3)c2c(Br)cccc12 (stereo not drawn)	63.1	631	64			
CC(=O)c1cn(CCCN2C3CCC2CC(OCC2CC2)C3)c2ccccc12 (stereo not drawn)	15800	1260	89			
COc1cccc2c(C#N)cn(CCCN3CCC(Oc4cccc(Cl)c4)CC3)c12	39.8	1260	162			
COc1ccc2c(c1)C1CCN(CCCn3cc(C(C)=O)c4ccccc43)CC1C2 (stereo not drawn)	5010	1260	110			
COC(=O)c1cn(CCCN2CCC(Oc3ccc(F)cc3)CC2)c2ccccc12	3160	2000	87			
